Experimental data: US20230339851A1, “CXCR6 SULFONAMIDE COMPOUNDS” (CHEMOCENTRYX, INC., priority 2022, published 2023)

The compounds below were run against T1, human CXCR6 (Homo sapiens, UniProt O00574) (assay: Radioligand Binding Assay (125I-CXCL16 displacement)). Conditions: L1.2 cells stably transfected with human CXCR6 cDNA, 0.1 nM 125I-CXCL16, 4° C., three-hour incubation; read-out: Potency (IC50).
T1 construct: expressed in transfected cells
Procedure, shortened: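 Displacement of 0.1 nM 125I-CXCL16 from human CXCR6 stably expressed in L1.2 cells was measured after a 3 h, 4 °C incubation in HBSS with 0.1% BSA. Filter-bound cpm were counted, and IC50 values came from a 3-parameter nonlinear fit.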

T1 sequence (O00574 whole entry): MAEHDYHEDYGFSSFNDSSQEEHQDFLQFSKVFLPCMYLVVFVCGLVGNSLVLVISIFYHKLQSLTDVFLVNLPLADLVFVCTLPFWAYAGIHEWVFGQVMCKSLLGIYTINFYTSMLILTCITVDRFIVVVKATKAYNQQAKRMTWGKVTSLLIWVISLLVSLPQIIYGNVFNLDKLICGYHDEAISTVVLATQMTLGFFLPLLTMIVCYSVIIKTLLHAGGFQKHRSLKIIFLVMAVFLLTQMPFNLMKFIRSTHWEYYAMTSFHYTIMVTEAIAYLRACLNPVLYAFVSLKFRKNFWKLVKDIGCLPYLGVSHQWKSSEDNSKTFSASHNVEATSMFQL

Row | Compound | IC50
1 | COc1cc(NC(=O)c2ccnn2C)ccc1S(=O)(=O)Nc1ccc(Cl)c(C(F)(F)F)c1 [Example 1.489] | 750 to 2000 nM
2 | CC(=O)Nc1cc(C)c(S(=O)(=O)Nc2cccc(C(F)(F)F)c2)c(C)c1 [Example 1.490] | 2000 to 20000 nM
3 | COc1cc(NC(=O)c2ccnn2C)ccc1S(=O)(=O)Nc1ccc(C#N)cc1 [Example 1.491] | 2000 to 20000 nM
4 | CCOc1cc(NC(=O)[C@@H](O)C(C)CC)ccc1S(=O)(=O)Nc1cccc(OC(F)(F)F)c1 (some centres unmarked) [Example 1.492] | ≤ 200 nM
5 | CCOc1cc(NC(=O)C(O)c2cccnc2)ccc1S(=O)(=O)Nc1cccc(OC(F)(F)F)c1 (centres unmarked) [Example 1.493] | 750 to 2000 nM
6 | CCOc1cc(NC(=O)[C@@H](CO)C2CC2)ccc1S(=O)(=O)Nc1cccc(C(F)(F)F)c1 [Example 1.494] | ≤ 200 nM
7 | COc1cc(NC(=O)[C@@H](CO)C(C)C)ccc1S(=O)(=O)Nc1ccc(C)c(C(F)(F)F)c1 [Example 1.495] | 200 to 750 nM
8 | CCCOc1cc(NC(=O)[C@@H](CO)c2ccccc2)ccc1S(=O)(=O)Nc1cccc(CC(F)(F)F)c1 [Example 1.496] | ≤ 200 nM
9 | COc1cc(NC(=O)C2CCCC2)ccc1S(=O)(=O)Nc1cccc(C(F)(F)F)c1 [Example 1.497] | 750 to 2000 nM
10 | CCOc1cc(NC(=O)[C@@H](CO)c2ccccc2)ccc1S(=O)(=O)Nc1ccc(C)c(CC)c1 [Example 1.498] | ≤ 200 nM
11 | CCOc1cc(NC(=O)[C@H]2CCOC[C@H]2COC)ccc1S(=O)(=O)Nc1cccc(OC(F)(F)F)c1 [Example 1.499] | ≤ 200 nM
12 | Cc1cc(NC(=O)C2CCOCC2)ccc1S(=O)(=O)Nc1cccc(C(F)(F)F)c1 [Example 1.500] | 200 to 750 nM
13 | Cc1cc(NC(=O)c2cncs2)ccc1S(=O)(=O)Nc1cccc(C(F)(F)F)c1 [Example 1.501] | 200 to 750 nM
14 | Cc1cc(NC(=O)c2ccnn2C)cc(F)c1S(=O)(=O)Nc1cccc(OC(F)(F)F)c1 [Example 1.502] | 200 to 750 nM
15 | CCOc1cc(NC(=O)[C@@H](NC(=O)C(F)(F)F)C(C)C)ccc1S(=O)(=O)Nc1cccc(OC(F)(F)F)c1 [Example 1.503] | ≤ 200 nM
16 | Cc1cc(NC(=O)c2ccnn2C)cc(C)c1S(=O)(=O)Nc1cccc(C(F)(F)F)c1 [Example 1.504] | 200 to 750 nM
17 | CCOc1cc(NC(=O)[C@@H]2CC=CC[C@H]2O)ccc1S(=O)(=O)Nc1cccc(OC(F)(F)F)c1 [Example 1.505] | ≤ 200 nM
18 | COc1cc(NC(=O)C2C3CCC(C3)N2C(=O)OC(C)(C)C)ccc1S(=O)(=O)Nc1cccc(C(F)(F)F)c1 (centres unmarked) [Example 1.506] | 750 to 2000 nM
19 | CCOc1cc(NC(=O)[C@@H](NC(C)=O)C(C)C)ccc1S(=O)(=O)Nc1cccc(C(F)(F)F)c1 [Example 1.507] | ≤ 200 nM
20 | CCOc1cc(NC(=O)C2CC3C=CC2O3)ccc1S(=O)(=O)Nc1cccc(OC(F)(F)F)c1 (centres unmarked) [Example 1.508] | ≤ 200 nM
21 | CCCc1cc(NC(=O)[C@@H](CO)c2ccccc2)ccc1S(=O)(=O)Nc1cccc(OC(F)(F)F)c1 [Example 1.509] | ≤ 200 nM
22 | CCOc1cc(NC(=O)c2ccc[n+]([O-])c2)ccc1S(=O)(=O)Nc1cccc(OC(F)(F)F)c1 [Example 1.510] | ≤ 200 nM
23 | CCOc1cc(NC(=O)C(O)c2c(F)cccc2F)ccc1S(=O)(=O)Nc1cccc(OC(F)(F)F)c1 (centres unmarked) [Example 1.511] | ≤ 200 nM
24 | CCOc1cc(NC(=O)CC(C)(O)C(F)(F)F)ccc1S(=O)(=O)Nc1cccc(OC(F)(F)F)c1 (centres unmarked) [Example 1.512] | 200 to 750 nM
25 | CCOc1cc(NC(=O)[C@@H]2CCOCC[C@@H]2O)ccc1S(=O)(=O)Nc1cccc(OC(F)(F)F)c1 [Example 1.513] | 200 to 750 nM
26 | CCOc1cc(NC(=O)c2ccc(=O)n(C)c2)ccc1S(=O)(=O)Nc1cccc(OC(F)(F)F)c1 [Example 1.515] | 750 to 2000 nM
27 | CCOc1cc(NC(=O)[C@@H](CO)C2CC2)ccc1S(=O)(=O)Nc1cccc(C(C)(C)C)c1 [Example 1.516] | 200 to 750 nM
28 | CCOc1cc(NC(=O)C(C)C(O)C2CC3C=CC2C3)ccc1S(=O)(=O)Nc1cccc(OC(F)(F)F)c1 (centres unmarked) [Example 1.517] | 200 to 750 nM
29 | CCn1nccc1C(=O)Nc1ccc(S(=O)(=O)Nc2cccc(C(F)(F)F)c2)c(C)c1 [Example 1.519] | 200 to 750 nM
